Test results as given in article PMC9014295 (Frontiers in Pharmacology, 2022).
“Also recorded” adds a separate entry of the source.

Legend:
human L02 cells [1] = assay: LDH release assay in L02 cells; format: cell-based; conditions: 24 h, different concentrations
Protocol: As previously described by [Zhang et al. (2020]), the human L02 cells were incubated with each macrolide compounds at different concentrations for 24 h. […] For cell toxicity, the level of lactate dehydrogenase (LDH) release was determined by LDH activity assay kits (Dojindo, CK12) according to the manufacturer’s specification, and the absorbance at 490 nm in each well was measured by a microplate reader.

[2] = system: fosab gene expression in zebrafish liver; assay: qRT-PCR of fosab gene expression in zebrafish liver; format: in vivo, Danio rerio; conditions: β-actin reference
Protocol: (§1) As previously described by [Zhang et al. (2020]), the treated zebrafish larvae liver and human L02 cells were collected for the qRT-PCR analysis. Total RNA were extracted from L02 cells and the dissected liver of larvae by using TRIzol reagent (Sigma–Aldrich, Saint Louis, MO, United States) and synthesized cDNA using M-MLV reverse transcriptase (Promega, M1708). The reaction of qRT-PCR was performed by LightCycler480. The relative mRNA levels were calculated with β-actin as the reference gene using the comparative […] quantization method. The specific primers (5′-3′) for amplification in zebrafish are as follows: fosab (F: TTACCAGCCTTAACGCCGAC, R: TGGACCATCCACTGCAAGTC), β-actin (F: CCGTGACATCAAGGAGAAG, R: ATACCGCAAGATTCCATACC). The primer sequences (5′-3′) for qRT-PCR in L02 cells are as follows: c-fos (F: TACTACCACTCACCCGCAGA, R: GGCCTCCTGTCATGGTCTTC), β-actin (F: CACCATTGGCAATGAGCGGTTC, R: AGGTCTTTGCGGATGTCCACGT).

[3] = system: zebrafish liver, transgenic Tg (fabp10: dsRed) zebrafish larvae; assay: Visual assessment of liver toxicity in zebrafish; format: in vivo, Danio rerio; conditions: exposure 3 dpf for 72 h, imaged at 6 dpf
Protocol: Wild-type AB strain zebrafish (Danio rerio) and transgenic Tg (fabp10: dsRed) zebrafish in this study were reared in a standard laboratory environment with a 14-h light/10-h dark cycle at 28 ± 1°C ([Chen et al., 2019]). As previously described ([Zhang et al., 2020]), 3 days post-fertilization (3 dpf), zebrafish larvae were exposed to compound solutions at different concentrations for 72 h. For visual assessment of liver toxicity in zebrafish, the tested zebrafish larvae were imaged by using a fluorescence microscope to observe the liver phenotype of zebrafish larvae, 20 larvae per group.

[4] = system: c-fos gene expression in L02 cells; assay: qRT-PCR of c-fos gene expression in L02 cells; format: cell-based, human; conditions: β-actin reference
Protocol: as §1

[5] = cited from earlier work; for Hepatotoxicity compared with erythromycin: ref Björnsson, 2017
human L02 cells [6] = assay: Cell viability of L02 cells by CCK-8 assay; format: cell-based; conditions: 24 h, different concentrations
Protocol: As previously described by [Zhang et al. (2020]), the human L02 cells were incubated with each macrolide compounds at different concentrations for 24 h. For cell viability, Cell Counting Kit-8 (CCK-8; Dojindo, CK04) was used by following the manufacturer’s protocol and the absorbance of each well was measured at 450 nm using a microplate reader. For cell toxicity, the level of lactate dehydrogenase (LDH) release was determined by LDH activity assay kits (Dojindo, CK12) according to the manufacturer’s specification, and the absorbance at 490 nm in each well was measured by a microplate reader.

zebrafish fosab gene = assay: RNA-seq analysis of zebrafish larvae liver (fosab); format: in vivo, Danio rerio; conditions: 2 mM; for Fold change of fosab gene (RNA-seq): exposed 3 dpf, collected 6 dpf
Protocol: As previously described ([Han et al., 2018a]), the process of ribonucleic acid sequencing (RNA-seq) analysis was carried out by CapitalBio Corporation (Beijing, China). […] Cytoscape software was employed to map the drug–pathway network.

Row | SMILES | Liver phenotype of zebrafish larvae ([3]; 0.5 mm) | c-fos mRNA level (qRT-PCR) [4] | Effect on fosab mRNA level (RNA-seq, GO enrichment analysis) (zebrafish fosab gene) | Fold change of fosab gene (RNA-seq) (zebrafish fosab gene) | further results
1 | CC[C@H]1OC(=O)[C@H](C)C(=O)[C@H](C)[C@@H](O[C@@H]2O[C@H](C)C[C@H](N(C)C)[C@H]2O)[C@](C)(OC)C[C@@H](C)C(=O)[C@H](C)[C@H]2N(CCCCn3cnc(-c4cccnc4)c3)C(=O)O[C@]12C [Telithromycin] | a dark coloration and amorphous liver | significantly elevated | – | – | Cytotoxicity (LDH release) (human L02 cells [1]): higher cytotoxicity than azithromycin; fosab mRNA level (qRT-PCR) [2]: significantly elevated; Liver phenotype of zebrafish larvae ([3]; 0.1 mM): hepatomegaly; Liver injury in clinical use ([5]; ref Author Anonymous, 2012): pulled from the market due to severe acute liver injury; Cytotoxicity / cell viability (CCK-8) (human L02 cells [6]): higher cytotoxicity than azithromycin
2 | CCC1OC(=O)C(C)C(OC2CC(C)(OC)C(O)C(C)O2)C(C)C(OC2OC(C)CC(N(C)C)C2O)C2(C)CC(C)C(=NC(C)C(O)C1(C)O)O2 (stereo not drawn) [Impurity Q] | – | significantly upregulated | upregulated significantly | 3.07 | –
3 | CCC1OC(=O)C(C)C(OC2CC(C)(OC)C(O)C(C)O2)C(C)C(OC2OC(C)CC(NC)C2O)C(C)(O)CC(C)CN(C)C(C)C(O)C1(C)O (stereo not drawn) [Impurity I] | – | significantly upregulated | upregulated significantly | 2.14 | –
4 | CCC1OC(=O)C(C)C(OC2CC(C)(OC)C(O)C(C)O2)C(C)C(OC2OC(C)CC([N+](C)(C)[O-])C2O)C(C)(O)CC(C)CN(C)C(C)C(O)C1(C)O (stereo not drawn) [Impurity L] | liver tissue became black | significantly upregulated; also recorded: greatest effect | upregulated significantly | 4.10 | fosab mRNA level (qRT-PCR) [2]: greatest effect; Liver phenotype of zebrafish larvae ([3]; 0.1 mM): hepatomegaly and caused the liver lost transparency with a brown coloration
5 | CC[C@H]1OC(=O)[C@H](C)[C@@H](O[C@H]2C[C@@](C)(OC)[C@@H](O)[C@H](C)O2)[C@H](C)[C@@H](O[C@@H]2O[C@H](C)C[C@H](N(C)C)[C@H]2O)[C@](C)(O)C[C@@H](C)/C(=N\OCOCCOC)[C@H](C)[C@@H](O)[C@]1(C)O [Roxithromycin] | – | – | – | – | Hepatotoxicity compared with erythromycin [5]: less hepatotoxicity than erythromycin
6 | CCC1OC(=O)C(C)C(OC2CC(C)(OC)C(O)C(C)O2)C(C)C(OC2OC(C)CC(N(C)C)C2O)C(C)(O)CC(C)C(=NO)C(C)C(O)C1(C)O (stereo not drawn) [Impurity S] | – | did not affect | no significant effect | – | Cytotoxicity / cell viability (CCK-8) (human L02 cells [6]): less cytotoxicity
7 | CC[C@H]1OC(=O)[C@H](C)[C@@H](O[C@H]2C[C@@](C)(OC)[C@@H](O)[C@H](C)O2)[C@H](C)[C@@H](O[C@@H]2O[C@H](C)C[C@H](N(C)C)[C@H]2O)[C@](C)(OC)C[C@@H](C)C(=O)[C@H](C)[C@@H](O)[C@]1(C)O [Clarithromycin] | – | – | – | – | Hepatotoxicity compared with erythromycin [5]: less hepatotoxicity than erythromycin
8 | CCC1OC(=O)C(C)C(O)C(C)C(OC2OC(C)CC(N(C)C)C2O)C(C)(O)CC(C)CN(C)C(C)C(O)C1(C)O (stereo not drawn) [Impurity J] | – | significantly upregulated | upregulated significantly | 2.92 | –
9 | CCC1OC(=O)C(C)C(OC2CC(C)(OC)C(O)C(C)O2)C(C)C(OC2OC(C)CC(N(C)C=O)C2O)C(C)(O)CC(C)CN(C)C(C)C(O)C1(C)O (stereo not drawn) [Impurity F] | nearly non-toxic to zebrafish liver | did not affect | no significant effect | – | Liver phenotype of zebrafish larvae ([3]; 1 mm): nearly non-toxic to zebrafish liver; Cytotoxicity / cell viability (CCK-8) (human L02 cells [6]): less cytotoxicity
10 | CC[C@H]1OC(=O)[C@H](C)[C@@H](O[C@H]2C[C@@](C)(OC)[C@@H](O)[C@H](C)O2)[C@H](C)[C@@H](O[C@@H]2O[C@H](C)C[C@H](N(C)C)[C@H]2O)[C@](C)(O)C[C@@H](C)CN(C)[C@H](C)[C@@H](O)[C@]1(C)O [Azithromycin] | hepatomegaly | – | – | – | Liver phenotype of zebrafish larvae ([3]; 0.1 mM): no toxicity to zebrafish liver; Liver phenotype of zebrafish larvae ([3]; 1 mm): blackened liver tissue; Hepatotoxicity compared with erythromycin [5]: higher hepatotoxicity than erythromycin
11 | CCC1OC(=O)C(C)C(OC2CC(C)(OC)C(O)C(C)O2)C(C)C(OC2OC(C)CC(N(C)C)C2O)C(C)(O)CC(C)C2=NC(C)C(O2)C1(C)O (stereo not drawn) [Impurity R] | – | significantly upregulated; also recorded: moderately lower than azithromycin | upregulated significantly | 2.18 | –
